Assay results reported in patent US4426371A, “Novel N-hydroxyalkylated dicarboxylic acid bis(3,5-dicarbamoyl-2,4,6-triiodoanilides), as X-ray contrast media” (Schering, Aktiengesellschaft, priority 1980, dated 1984).

Assays:
[1] = Osmotic pressure of aqueous contrast media solution; type: physicochemical; conditions: 300 mg I/ml
Text: (§1) It was surprising that, per this invention, a comparatively minor chemical modification of the class of compounds described in DOS No. 2,628,517 (U.S. Pat. No. 4,239,747) would lead to a significant improvement in compatibility and to an increase in solubility. This can be seen from Table I wherein the compound A of this invention (malonic acid bis[3,5-bis(1,3-dihydroxyisopropylcarbamoyl)-2,4,6-triiodo-N-2-hydroxyethylanilide]) is compared with respect to osmotic pressure, viscosity, and compatibility with oxalic acid bis[3,5-bis(2,3-dihydroxypropyl-N-methylcarbamoyl)-2,4,6-triiodo-anilide] (B), as well as with iopamidol (5-[α-hydroxypropionyl-amino]-2,4,6-triiodoisopthalic acid bis[1,3-dihydroxyisopropyl-amide]) and metrizamide [2-(3-acetamido-2,4,6-triiodo-5-[N-methylacetamido]benzamido)-2-deoxy-D-glucose)].
(§2) Osmotic Pressure, Viscosity, and Compatibility of Nonionic
(§3) Contrast Media of Different Chemical Structure as an Aqueous
(§4) Solution (Concentration: 300 mg I/ml)

Rat = assay: Compatibility: LD50 (Rat) upon i.v. injection; type: in vivo; conditions: rate 2 ml/min, aqueous solution 300 mg I/ml
Procedure: as §2, §3, §4
Pressure Viscosity (g Iodine/kg Body

[2] = Viscosity of aqueous contrast media solution; type: physicochemical; conditions: 300 mg I/ml
Text: as §1, §2, §3, §4

[3] = for angiography and myelography; background; cited from earlier work

Row | Compound | Osmotic Pressure 37° C. [1] [atm] | LD50 (Rat) upon i.v. Injection (Rat) | Viscosity 37° C. [2] [cp] | concentrated, radiopaque solutions not hypertonic to blood or other body fluid [3]
1 | CN(CC(O)CO)C(=O)c1c(I)c(NC(=O)C(=O)Nc2c(I)c(C(=O)N(C)CC(O)CO)c(I)c(C(=O)N(C)CC(O)CO)c2I)c(I)c(C(=O)N(C)CC(O)CO)c1I (centres unmarked) [B, oxalic acid bis[3,5-bis(2,3-dihydroxypropyl-N-methylcarbamoyl)-2,4,6-triiodo-anilide]] | 4.3 | 13 g Iodine/kg Body Weight | 13.7 | 
2 | CC(=O)Nc1c(I)c(C(=O)N[C@H]2C(O)O[C@H](CO)[C@@H](O)[C@@H]2O)c(I)c(N(C)C(C)=O)c1I (some centres unmarked) [Metrizamide] | 12.3 | 12 g Iodine/kg Body Weight | 6.2 | it has not been possible to prepare solutions sufficiently concentrated and radiopaque
3 | C[C@H](O)C(=O)Nc1c(I)c(C(=O)NC(CO)CO)c(I)c(C(=O)NC(CO)CO)c1I [Iopamidol, 5-[α-hydroxypropionyl-amino]-2,4,6-triiodoisopthalic acid bis[1,3-dihydroxyisopropyl-amide]] | 15.7 | 12 g Iodine/kg Body Weight | 4.7 | it has not been possible to prepare solutions sufficiently concentrated and radiopaque
4 | O=C(NC(CO)CO)c1c(I)c(C(=O)NC(CO)CO)c(I)c(N(CCO)C(=O)CC(=O)N(CCO)c2c(I)c(C(=O)NC(CO)CO)c(I)c(C(=O)NC(CO)CO)c2I)c1I [A, malonic acid bis[3,5-bis(1,3-dihydroxyisopropylcarbamoyl)-2,4,6-triiodo-N-2-hydroxyethylanilide]] | 7.2 | more than 30 g Iodine/kg Body Weight | 6.8 | 
